From patent EP2468746A1, “Benzothiazinone compounds and their use as anti-tuberculosis agents” (priority 2010, dated 2012)
Values after ≈ are worked out from the molar mass of the structure shown. Values joined by “and” are separate entries in the source; they are usually repeats but may differ in a detail not shown here. Identical values can stand only once. Like-named read-outs stand apart in the source and are kept apart here.

Tests used:
M smeg 5G987 = assay: MIC assay, broth microdilution with resazurin; format: cell-based, Mycobacterium smegmatis; conditions: for MIC: Mycolicibacterium smegmatis
Protocol: (§1) The protocol used is based upon that detailed by the CLSI (Clinical and Laboratory Standards Institute (CLSI) 2006. Methods for Dilution Antimicrobial Susceptibility Tests for Bacteria that Grow Aerobically; Approved Standard. 7th edn. Document M7-A6. Clinical and Laboratory Standards Institute, Wayne, PA.).
(§2) The compounds are dissolved in DSMO in a concentration of 1 mg/ml and further diluted in water to achieve the final concentration, which is used as the highest concentration for determination of MIC. This highest concentration is filled in the first row of the microtiter plate and further diluted in the culture medium for the mycobacteria (Mueller-Hinton Broth and Middlebrook 7H9 broth). All solutions are freshly prepared under sterile conditions.
(§3) Ciprofloxacin, Isoniazid and Rifampicin can be used as reference compounds for control of the assay as well as a solvent control.
(§4) Minimal inhibitory concentrations (MIC) are determined according to the CLSI guidelines using the broth microdilution method. 50 µl of the compound solution are serially diluted directly in the microtiter plate by factor two with MHB or 7H9 media. Then the wells are inocalated with 50 µl of test organisms in MHB/7H9 to give a final concentration of 5x10^5 CFU/ml. After that the microtiter plates are incubated at 37°C for 48 h. Then 30 µl of resazurin solution is added to each well and plates are allowed to incubate at 37°C for additional 24 hrs. A change from blue to pink colour indicates reduction of resazurin and therefore bacterial growth. The MIC is defined as the lowest drug concentration that prevents this colour change.
(§5) Resazurin salt powder (Sigma) is prepared at 0.01 % (wt/vol) in distilled water, sterilized by filtration through a 0.22 µm membrane and stored at 4°C for a week.

M aurum SB66 = assay: MIC assay, broth microdilution with resazurin; format: cell-based; conditions: for activity against M. aureum strain SB66: strain resistant against agents that target decaprenylphosporyl-β-D-ribose 2'-epimerase
Protocol: as §1, §2, §3, §4, §5

M fort B = assay: MIC assay, broth microdilution with resazurin; format: cell-based; conditions: for MIC: read-out: MIC M fort B
Protocol: as §1, §2, §3, §4, §5

M vaccae 10670 = assay: MIC assay, broth microdilution with resazurin; format: cell-based
Protocol: as §1, §2, §3, §4, §5

[1] = tested on: Mycobacterium smegmatis, ATCC 700084; assay: MIC assay, broth microdilution with resazurin; format: cell-based; conditions: Mycolicibacterium smegmatis, ATCC700084; head carries superscript IMB; read-out: MIC M smeg 700084
Protocol: as §1, §2, §3, §4, §5

M tb MDR (BACTEC) = assay: microbe, parasite or virus in culture; format: cell-based, M. tuberculosis; conditions: for MIC: Mycobacterium tuberculosis
HUVEC = format: cell-based
Protocol: (§6) Test cells (see Table below for details) are seeded as 1x10^4 cells per well in a clear 96 well plate in a final volume of 100 µl in media. Cells are incubated for 24 hours at 37°C, 5% CO2 to allow cells to attach to the plates.
(§7) The compounds of the present invention are added in triplicate in a range of concentrations. For compound A e.g., the concentration started from 100µM,...and then 2-fold diluted to 0.78µM. Colistin and Tamoxifen were applied as controls.
(§8) The cells are incubated for 24 hours at 37°C, 5% CO2. MTT (3-(4,5-Dimethylthiazol-2-yl)-2,5-diphenyltetrazolium bromide) (Sigma) (dissolved in PBS) is added to each well to a final concentration of 0.4 mg/mL. The plate is then incubated for 1 hours at 37°C, 5% CO2. Media is removed, and crystals are resuspended in 60 µl of DMSO. Shaking the plate at room temperature for 10 minutes dissolves the formazan crystals, and the absorbance is then read at 570 nm.
(§9) Results are presented as the average percentage of control ± SD for each set of duplicate wells using the following equation: Percent Viability = (ABSTEST - ABS5%DMSO/ / ABSUNTREATED -ABS5%DMSO)*100. A 1% DMSO 'vehicle' control is also included to monitor the effect of DMSO on the cells (all pure compounds are diluted in 10 % DMSO, so final assay concentration is 1%).

K-562 = format: cell-based
Protocol: as §6, §7, §8, §9

Cytotoxicity assay (MTT) = format: cell-based; conditions: human
Protocol: as §6, §7, §8, §9

M. tuberculosis H37Rv = assay: BTZ efficacy in the acute animal model (mouse infection); format: in vivo; conditions: BALB/c mice, 5 x 10^6 CFU, gavage 37.5 or 300 mg per kg, once daily, 5 times/week, four weeks
Protocol: BTZ efficacy in vivo can be determined in a standard mouse infection model according to e.g. the following protocol. BALB/c mice are infected with M. tuberculosis H37Rv at a bacillary load of 5 x 10^6 CFU by injection into the eye venous sinus, 10 BALB/c mice per group. The first day of the treatment is day 8 after the infection. Mice are dosed by gavage with 37.5, or 300 mg of BTZ, per kg body weight, in carboxymethyl cellulose formulation (0.25%), once daily, 5 times/week, for four weeks. Negative control mice died 25-28 days after infection.

physchem = conditions: 20 °C, pH 7.4, aqueous buffer, kinetic from dmso stock
Stability in plasma (H) = conditions: first value of the cell
Stability in plasma (M) = conditions: second value of the cell
HEK293 = assay: Cytotoxicity assay (MTT); format: cell-based; conditions: 24 hours, read-out: CytoTox HEK293 (CC50)
Protocol: as §6, §7, §8, §9

HeLa = assay: Cytotoxicity assay (MTT); format: cell-based; conditions: 24 hours, read-out: CytoTox HeLa (CC50)
Protocol: as §6, §7, §8, §9

HepG2 = assay: Cytotoxicity assay (MTT); format: cell-based; conditions: 24 hours, read-out: CytoTox HepG2 (CC50)
Protocol: as §6, §7, §8, §9

mycobacteria = conditions: comparison values, strain not named; cited from earlier work
[2] = 5G987, read-out: MIC M smeg 5G987

CN(C(=O)CN1CCN(c2nc(=O)c3cc(C(F)(F)F)cc([N+](=O)[O-])c3s2)CC1)c1ccccc1 [Compound A]
MIC (M smeg 5G987; 5G987, molar value in brackets, strain not named, read-out: MIC against Mycobacterium smegmatis): 0.025 µM
MIC (M smeg 5G987; [2]): 0.0125 µg/mL
MIC (M smeg 5G987; 5G987, read-out: MIC against Mycobacterium smegmatis): 0.012 µg/mL
MIC (M aurum SB66): > 100 µg/mL
activity against M. aureum strain SB66 (M aurum SB66): neither compound A nor the Reference compound I are active
MIC (M fort B): 0.0125 µg/mL (≈ 0.0246 µM)
MIC (M vaccae 10670): 0.00312 µg/mL (≈ 0.00615 µM)
MIC [1]: 0.015 µg/mL (≈ 0.0296 µM)
MIC (M tb MDR (BACTEC); read-out: MIC M tb MDR (BACTEC)): 0.03 µg/mL (≈ 0.0591 µM)
MIC (M tb MDR (BACTEC); read-out: MIC against MDR M. tuberculosis): 0.03 µg/mL and 0.059 µM
CytoTox HUVEC (GC50) (HUVEC; human, 24 h): 18 µM
CytoTox K-562 (GC50) (K-562; human, 24 h): 30 µM
CC50 at 24 h (Cytotoxicity assay (MTT); HEK293 cells, read-out: CytoTox HEK293 (CC50)): > 100 µM
CC50 at 24 h (Cytotoxicity assay (MTT); HeLa cells, read-out: CytoTox HeLa (CC50)): 39 µM
CC50 at 24 h (Cytotoxicity assay (MTT); HepG2 cells, read-out: CytoTox HepG2 (CC50)): > 100 µM
efficacy, life of the treated mice (M. tuberculosis H37Rv): very effective in this model and significantly prolonged the life of the treated mice
solubility at 20 h (physchem): 12 µM (≈ 6.09 µg/mL)
Stability Plasma (H/M) (Stability in plasma (H)): 95%
Stability Plasma (H/M) (Stability in plasma (M)): 115%

CC1COC2(CCN(c3nc(=O)c4cc(C(F)(F)F)cc([N+](=O)[O-])c4s3)CC2)O1 (stereo not shown) [Cpd 1 of WO 2007/134625, reference compound]
MIC M smeg 5G987 (M smeg 5G987): 0.00312 µg/mL (≈ 0.00723 µM)
MIC M aurum SB66 (M aurum SB66): >100 µg/mL
activity against M. aureum strain SB66 (M aurum SB66): neither compound A nor the Reference compound I are active
MIC M fort B (M fort B): 0.00156 µg/mL (≈ 0.00362 µM)
MIC (M vaccae 10670): 0.0004 µg/mL (≈ 0.000927 µM)
MIC [1]: 0.008 µg/mL (≈ 0.0185 µM)
MIC M tb MDR (BACTEC) (M tb MDR (BACTEC)): ≤0.015 µg/mL
CytoTox HUVEC (GC50) (HUVEC): 8 µM
CytoTox K-562 (GC50) (K-562): 11 µM
CC50 (HEK293): > 100 µM
CC50 (HeLa): > 50 µM
CC50 (HepG2): > 100 µM
Stability Plasma (H/M) (Stability in plasma (H)): 107%
Stability Plasma (H/M) (Stability in plasma (M)): 97%

O=c1nc(N2CCN(Cc3ccccc3)CC2)sc2c([N+](=O)[O-])cc(C(F)(F)F)cc12 [Cpd 7 of WO 2009/010163, reference compound]
MIC (M smeg 5G987; [2]): 0.05 µg/mL
MIC (M fort B): 0.05 µg/mL (≈ 0.111 µM)

CC[C@@H](CO)NCCN[C@@H](CC)CO [ethambutol]
MIC of the existing TB drugs (mycobacteria): 1 to 5 µg/mL

NNC(=O)c1ccncc1 [isoniazid]
MIC of the existing TB drugs (mycobacteria): 0.02 to 0.2 µg/mL
